Source: patent US20250195530A1, “POLQ INHIBITORS” (ASTRAZENECA AB, priority 2022, published 2025)
Like-named read-outs stand apart in the source and are kept apart here.

Tested on: DLD-1 BRCA2−/− cells
Experiment: Homologous recombination synthetic lethal inhibition of proliferation, DLD-1 BRCA2-/- (Cell Titre Glo 3D)
Format: cell-based
Conditions: for IC50: Homo sapiens
Excerpt: This assay identifies anti-proliferative effects of POLQ compounds in the homologous recombination deficient colorectal cell line DLD-1 BRCA2−/− over 8-9 population doublings (7 days for DLD-1 and 12 days for DLD-1 BRCA2−/−). DLD1 BRCA2 wt are used as a control to detect cell toxic effects not specific to homologous recombination deficiency.
DLD-1 BRCA2−/− and DLD-1 cells were kept in continuous culture in Assay Medium (RPMI 1640 phenol red free (Sigma R7509) containing 1% GlutaMAX (Gibco 35050) and 10% Foetal Bovine Serum (Gibco 10270-106)). On the day of the assay cells in culture of ˜80-90% confluent were used. Cell monolayers were washed with 10 mL PBS, then removed and added 2 mL TrypLE Express (Gibco 12604). The cells with TrypLE Express were incubated for 5 minutes in cell culture incubator and then the detached cells resuspend in 15 mL Assay Medium. Cells were counted using a ViCell and the cell images were monitored for clumps of cells, ideally they should be single or <3 cell clusters. The cells were diluted to 3,000 cells/mL of DLD-1 BRCA2−/− and 1,500 cells/mL of DLD-1 in Assay Medium and 100 μL added per well of transparent bottomed, black, tissue culture-treated 96-well plates (CoStar, No. 3904) Assay Ready Plates. The Assay Ready Plates contain a 10 point 10 μM to 0.51 nM dose range with three-fold dilutions in DMSO with a final volume of 100 nL. The plates were incubated at 37° C. with 5% C02 for 6 days. On day 6, 100 μL/well of Assay Medium was added to duplicate Assay Ready Plates. 90 μL of culture medium was removed from the cell plates and replenished with the Assay Media and compounds from the duplicate Assay Ready Plates using the Bravo. The plates were further incubated at 37° C. with 5% CO2. On day 7 the plates containing DLD-1 and Cell Titre Glo 3D (Promega G9683) were equilibrated to room temperature, then 60 μL of Cell Titre Glo 3D was added per well and incubated on a shaking platform for 30 min. Plates were read on the Envision measuring luminescence for 1 second per well. On day 12 the plates containing DLD-1 BRCA2−/− cells and Cell Titre Glo 3D (Promega G9683) were equilibrated to room temperature, then 60 μL Cell Titre Glo 3D added per well and incubated on a shaking platform for 30 min. Plates were read on the Envision measuring luminescence for 1 second per well. The data was exported into a suitable software package (such as Genedata) to perform curve fitting analysis. Inhibition of cell proliferation was expressed as an IC5o value and was determined by calculation of the concentration of compound that was required to give a 50% reduction of the average maximum Total Intensity signal.

[1] = DLD-1, DLD-1 BRCA2-/- proliferation, column head only partly shown, read-out: POLQ PD Prolif Lumin (converted)
[2] = DLD-1, first proliferation column (c5), DLD-1 BRCA2-/-, read-out: POLQ PD Prolif Lumin (converted)
[3] = DLD-1, proliferation, luminescence, taken as DLD-1 BRCA2-/-, read-out: POLQ PD Prolif Lumin (converted)
[4] = DLD-1, DLD-1 BRCA2 −/− cells, mean, read-out: POLQ PD Prolif Lumin BRCA2 −/− mean pIC50 (converted)
[5] = DLD-1, first proliferation column (c5), taken as DLD-1 BRCA2-/-, read-out: POLQ PD Prolif Lumin (converted)
[6] = DLD-1, DLD-1 BRCA2 −/−, mean, read-out: POLQ PD Prolif Lumin BRCA2 −/− mean pIC50 (converted)

**Q.** For `Cc1ccnc(Cn2c(-c3ccc(C(=O)NC4CC(F)C4)cc3Cl)nc3c(OC4(C)CC4)ncnc32)c1` (centres unmarked) [Example T280, 3-chloro-N-(3-fluorocyclobutyl)-4-(6-(1-methylcyclopropoxy)-9-((4-methylpyridin-2-yl)methyl)-9H-purin-8-yl)benzamide], which IC50 [1] is on record?
**A.** Its IC50 is 794 nM.

**Q.** How did the IC50 [1] turn out when `Cc1ccnc(Cn2c(-c3ccc(OCCOCCO)cc3Cl)nc3c(OC4(C)CC4)ncnc32)c1` [Example T233, 2-(2-(3-chloro-4-(6-(1-methylcyclopropoxy)-9-((4-methylpyridin-2-yl)methyl)-9H-purin-8-yl)phenoxy)ethoxy)ethan-1-ol] was run?
**A.** Its IC50 is 158 nM.

**Q.** `Cc1ccnc(Cn2c(-c3ccc(C(=O)N4CC[C@H](F)C4)cc3Cl)nc3c(OC4(C)CC4)ncnc32)c1` [Example T281, (S)-(3-chloro-4-(6-(1-methylcyclopropoxy)-9-((4-methylpyridin-2-yl)methyl)-9H-purin-8-yl)phenyl)(3-fluoropyrrolidin-1-yl)methanone] was tested. Which IC50 [1] did it give?
**A.** The IC50 was 794 nM.

**Q.** How did the IC50 [2] turn out when `Cc1ccnc(Cn2c(-c3ccc(CC(=O)N4CC5(CNC5)C4)cc3Cl)nc3c(OC4(C)CC4)ncnc32)c1` [Example T558, 2-(3-chloro-4-(6-(1-methylcyclopropoxy)-9-((4-methylpyridin-2-yl)methyl)-9H-purin-8-yl)phenyl)-1-(2,6-diazaspiro[3.3]heptan-2-yl)ethan-1-one] was run?
**A.** The IC50 was greater than 10000 nM.

**Q.** With `Cc1ccnc(Cn2c(-c3ccc(OCC(=O)N4C[C@@H](O)[C@H](F)C4)cc3Cl)nc3c(OC4(C)CC4)ncnc32)c1` [Example T423, 2-(3-chloro-4-(6-(1-methylcyclopropoxy)-9-((4-methylpyridin-2-yl)methyl)-9H-purin-8-yl)phenoxy)-1-((3R,4R)-3-fluoro-4-hydroxypyrrolidin-1-yl)ethan-1-one] as the compound, how does the IC50 [3] read?
**A.** The IC50 was 1000 nM.

**Q.** How did the IC50 [4] turn out when `CC1(Oc2ncnc3c2nc(-c2ccc(CC(N)=O)cc2Cl)n3CCc2ccccc2)CC1` [Example T102, 2-(3-chloro-4-(6-(1-methylcyclopropoxy)-9-phenethyl-9H-purin-8-yl)phenyl)acetamide] was run?
**A.** The IC50 was 1580 nM.

**Q.** How did the IC50 (DLD-1, first proliferation column, DLD-1 BRCA2-/-, read-out: POLQ PD Prolif Lumin (converted)) turn out when `CC1(Oc2ncnc3c2nc(-c2ccc(OCCN4C5CCC4CNC5)cc2Cl)n3Cc2ccccc2)CC1` [Example T605, 8-(4-(2-(3,8-diazabicyclo[3.2.1]octan-8-yl)ethoxy)-2-chlorophenyl)-9-benzyl-6-(1-methylcyclopropoxy)-9H-purine] was run?
**A.** The IC50 was 158 nM.

**Q.** How did the IC50 [2] turn out when `CC1(Oc2ncnc3c2nc(-c2ccc(OCCN4C[C@H]5C[C@@H]4CN5)cc2Cl)n3Cc2cc(Cl)ccn2)CC1` [Example T485, 8-(4-(2-((1R,4R)-2,5-diazabicyclo[2.2.1]heptan-2-yl)ethoxy)-2-chlorophenyl)-9-((4-chloropyridin-2-yl)methyl)-6-(1-methylcyclopropoxy)-9H-purine] was run?
**A.** Its IC50 is 501 nM.

**Q.** Which IC50 [4] does the source give for `CC1(Oc2ncnc3c2nc(-c2ccc(NCCC(=O)O)cc2Cl)n3Cc2cccc(Cl)c2)CC1` [Example T97, 3-((3-chloro-4-(9-(3-chlorobenzyl)-6-(1-methylcyclopropoxy)-9H-purin-8-yl)phenyl)amino)propanoic acid] here?
**A.** Its IC50 is 1260 nM.

**Q.** Which “POLQ PD Prolif Lumin” value (DLD-1 BRCA2-/- proliferation, column head only partly shown) does the source give for `CC1(Oc2ncnc3c2nc(-c2cccc(O[C@H]4C[C@@H](C(=O)O)C4)c2Cl)n3Cc2cccc(Cl)c2)CC1` [Example T257, (1s,3s)-3-(2-chloro-3-(9-(3-chlorobenzyl)-6-(1-methylcyclopropoxy)-9H-purin-8-yl)phenoxy)cyclobutane-1-carboxylic acid] here?
**A.** The value was 7.

**Q.** Which IC50 [5] does the source give for `CC1(Oc2ncnc3c2nc(-c2ccc(OCCN4CCNCC4)cc2Cl)n3Cc2ncccc2F)CC1` [Example T351, 8-(2-chloro-4-(2-(piperazin-1-yl)ethoxy)phenyl)-9-((3-fluoropyridin-2-yl)methyl)-6-(1-methylcyclopropoxy)-9H-purine] here?
**A.** The IC50 was 3160 nM.

**Q.** Which IC50 [2] does the source give for `CC[C@H](CO)NC(=O)COc1ccc(-c2nc3c(OC4(C)CC4)ncnc3n2Cc2cc(C)ccn2)c(Cl)c1` [Example T518, (R)-2-(3-chloro-4-(6-(1-methylcyclopropoxy)-9-((4-methylpyridin-2-yl)methyl)-9H-purin-8-yl)phenoxy)-N-(1-hydroxybutan-2-yl)acetamide] here?
**A.** Its IC50 is 398 nM.

**Q.** With `Cc1ccnc(Cn2c(-c3ccc(CC(=O)N4CC5(CCN5)C4)cc3Cl)nc3c(OC4(C)CC4)ncnc32)c1` [Example T556, 2-(3-chloro-4-(6-(1-methylcyclopropoxy)-9-((4-methylpyridin-2-yl)methyl)-9H-purin-8-yl)phenyl)-1-(1,6-diazaspiro[3.3]heptan-6-yl)ethan-1-one] as the compound, how does the IC50 [2] read?
**A.** Its IC50 is 6310 nM.

**Q.** How did the IC50 [1] turn out when `CC(=O)NCCc1ccc(-c2nc3c(OC4(C)CC4)ncnc3n2Cc2cc(C)ccn2)c(Cl)c1` [Example T212, N-(3-chloro-4-(6-(1-methylcyclopropoxy)-9-((4-methylpyridin-2-yl)methyl)-9H-purin-8-yl)phenethyl)acetamide] was run?
**A.** The IC50 was 398 nM.

**Q.** With `Cc1ccnc(Cn2c(-c3ccc(C(=O)N(C)CC4(O)CC4)cc3Cl)nc3c(OC4(C)CC4)ncnc32)c1` [Example T462, 3-chloro-N-((1-hydroxycyclopropyl)methyl)-N-methyl-4-(6-(1-methylcyclopropoxy)-9-((4-methylpyridin-2-yl)methyl)-9H-purin-8-yl)benzamide] as the compound, how does the IC50 [3] read?
**A.** Its IC50 is 1580 nM.

**Q.** Which IC50 [2] does the source give for `Cc1ccnc(Cn2c(-c3ccc(OCC4(O)COC4)cc3Cl)nc3c(OC4(C)CC4)ncnc32)c1` [Example T200, 3-((3-chloro-4-(6-(1-methylcyclopropoxy)-9-((4-methylpyridin-2-yl)methyl)-9H-purin-8-yl)phenoxy)methyl)oxetan-3-ol] here?
**A.** The IC50 was 316 nM.

**Q.** For `CC(CCCc1ccc(-c2nc3c(OC4(C)CC4)ncnc3n2Cc2ccccc2C#N)c(Cl)c1)C(=O)O` (racemic) [Example U12, 5-(3-chloro-4-(9-(2-cyanobenzyl)-6-(1-methylcyclopropoxy)-9H-purin-8-yl)phenyl)-2-methylpentanoic acid], which IC50 [6] is on record?
**A.** Its IC50 is 398 nM.

**Q.** How did the IC50 [2] turn out when `Cc1ccnc(Cn2c(-c3ccc(CC(=O)NCC(F)F)cc3Cl)nc3c(OC4(C)CC4)ncnc32)c1` [Example T165, 2-(3-chloro-4-(6-(1-methylcyclopropoxy)-9-((4-methylpyridin-2-yl)methyl)-9H-purin-8-yl)phenyl)-N-(2,2-difluoroethyl)acetamide] was run?
**A.** Its IC50 is 100 nM.

**Q.** `Cc1ccnc(Cn2c(-c3ccc(OCC(=O)NC4COC4)cc3Cl)nc3c(OC4(C)CC4)ncnc32)c1` [Example T323, 2-(3-chloro-4-(6-(1-methylcyclopropoxy)-9-((4-methylpyridin-2-yl)methyl)-9H-purin-8-yl)phenoxy)-N-(oxetan-3-yl)acetamide] was tested. Which IC50 [5] did it give?
**A.** The IC50 was 200 nM.

**Q.** `Cc1ccnc(Cn2c(-c3ccc(N4CCC5NCCC54)cc3Cl)nc3c(OC4(C)CC4)ncnc32)c1` (centres unmarked) [Example T492, 8-(2-chloro-4-(hexahydropyrrolo[3,2-b]pyrrol-1(2H)-yl)phenyl)-6-(1-methylcyclopropoxy)-9-((4-methylpyridin-2-yl)methyl)-9H-purine] was tested. Which IC50 [2] did it give?
**A.** Its IC50 is 398 nM.

**Q.** Which IC50 [5] does the source give for `Cc1ccnc(Cn2c(-c3ccc(N4CCNCCC4=O)cc3Cl)nc3c(OC4(C)CC4)ncnc32)c1` [Example T338, 4-(3-chloro-4-(6-(1-methylcyclopropoxy)-9-((4-methylpyridin-2-yl)methyl)-9H-purin-8-yl)phenyl)-1,4-diazepan-5-one] here?
**A.** The IC50 was 2000 nM.

**Q.** For `CC(CCOc1ccc(-c2nc3c(OC4(C)CC4)ncnc3n2Cc2cccc(F)c2)c(Cl)c1)C(=O)O` (racemic) [Example U6, 4-(3-chloro-4-(9-(3-fluorobenzyl)-6-(1-methylcyclopropoxy)-9H-purin-8-yl)phenoxy)-2-methylbutanoic acid], which IC50 [6] is on record?
**A.** The IC50 was 251 nM.

**Q.** For `Cc1ccnc(Cn2c(-c3ccc(O[C@H]4CCN(C(=O)CO)C4)cc3Cl)nc3c(OC4(C)CC4)ncnc32)c1` [Example T483, (S)-1-(3-(3-chloro-4-(6-(1-methylcyclopropoxy)-9-((4-methylpyridin-2-yl)methyl)-9H-purin-8-yl)phenoxy)pyrrolidin-1-yl)-2-hydroxyethan-1-one], which IC50 [2] is on record?
**A.** Its IC50 is 631 nM.
